These results are taken from patent US5550143A, “Heterocyclic compounds” (Adir et Compagnie, priority 1992, dated 1996).

SMILES strings stand for the structures. Where two headings read alike, the source gives them in different places.

Broadly, the inhibition is the change of the read-out against control, counted positive when it falls.

Series [1] in a line: Hypotensive effect in rats. The series is classed as in vivo. The conditions noted are these: 20 mg/kg intraperitoneally.
Series [2] concerns spontaneous motor activity. In words: Locomotive activity in mice (spontaneous motor activity). Format: in vivo. The conditions noted are these: for Number of movements (as a % compared with a control group): 30 min before test, 15 min, ns p > 0.05, ** p < 0.01. The procedure:
This test consists in determining the spontaneous motor activity of mice placed in an enclosure that constitutes a new environment and is equipped with a system of infra-red rays, the interruption of which when the animal passes through serves as a measurement criterion ("Activity monitor" Digiscan-Omnitech Electronics, Sufraco France).
The molecules are administered intraperitoneally 30 minutes before the test at doses of 1, 2, 2.5, 4, 5 and 10 mg/kg. The locomotive activity (number of movements) is measured for 15 minutes.

Series [3] relates to TNF. Briefly: Peripheral effect: amount of TNF in serum and brain of rats after intracerebroventricular LPS. Format: in vivo. To be noted: Example 1 i.p. 8 mg/kg, FIG. 1. The source says: In comparison with chlorpromazine, the compounds of the invention have only a peripheral effect.
In series [4] the test system is TNF. Briefly: Inhibition of the production of TNF in mice treated with LPS (amount of TNF in the serum). Format: in vivo. The conditions noted are these: Mus musculus, 1 h; for inhibition in vivo at 50 mg/kg: oral, 30 min before LPS 2.5 μg i.p., compared with control group which received only LPS, read-out: % inhibition of the production of TNF after oral admin. The procedure:
The test is carried out on mice. Thirty minutes after the intraperitoneal or oral administration of the molecule to be tested, the mice are treated intraperitoneally with 2.5 μg of LPS from Escherichia coli. The amount of TNF in the serum is measured after 1 hour by a biological method.

The next series relates to corticosteronemia. In words: Measurement of corticosteronemia after administration of IL-1. Format: in vivo, mice. The conditions noted are these: for Reduction in hypercorticosteronemia compared with control / Hypercorticosteronemia after admin. IL-1: 30 min before 1 μg IL-1 i.p.; for Hypercorticosteronemia after admin. IL-1: measured 2 hours later. The procedure:
Thirty minutes after the intraperitoneal administration of the molecule to be tested, the mice are treated with 1 μg of IL-1 injected intraperitoneally. Corticosteronemia is determined 2 hours later by a suitable technique. Under the same conditions, the compound and then a saline solution are administered intraperitoneally to a control group.

A further series concerns the target T1, Procine pancreatic PLA2 (Sus scrofa, UniProt P00592).
T1 construct: from tissue; host or cells: porcine pancreas
Briefly: Inhibition of phospholipase PLA2 activity (E. coli membranes labelled with tritiated oleic acid). To be noted: read-out: % Inhibition at 1 mM. Format: biochemical, pigs. Here is the method: PLA2 hydrolyses cell membrane phospholipids by freeing arachidonic acid (AA). Inhibition of that enzyme brings about a reduction in the amount of non-esterified free AA from which metabolites, such as leucotrienes and pro-inflammatory prostaglandins, are produced. The PLA2 activity is measured by using as substrate E. coli membranes labelled with tritiated oleic acid. Procine pancreatic PLA2 is incubated with the preparation for 30 minutes at 37° C. After centrifugation, the radioactivity of the supernatant is counted. The inhibitory activity of the compound (1 mM) is expressed in relation to the control.

A further series has as its system LPS shock. In words: Protective effect in respect of LPS shock (% survival of mice after administration of LPS). The series is classed as in vivo. To be noted: 30 min before LPS 1 μg. The procedure: The test is carried out on mice. The compound to be tested is administered intraperitoneally or orally. In the first protocol (i.p.), the compound is administered 30 minutes before the injection of 1 μg of LPS into mice. The mortality is determined 72 hours later.

Setting [5] is: ip, read-out: % inhibition of the production of TNF after i.p. admin.
[6] abbreviates: 1 mM, 30 minutes at 37° C., relative to control.

T1 sequence (P00592 23-146): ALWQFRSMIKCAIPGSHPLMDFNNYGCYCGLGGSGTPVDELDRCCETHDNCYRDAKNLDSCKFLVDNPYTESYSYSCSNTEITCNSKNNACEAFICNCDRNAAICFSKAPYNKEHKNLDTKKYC

As to `CN(C)CCCN1c2ccccc2Sc2ccc(Cl)cc21` [Chlorpromazine, reference compound], the hypotension entry in series [1] is recorded as “severe hypotension from the 15th minute onwards”. In addition, the “Number of movements (as a % compared with a control group)” value is reported as -20% in series [2] (IP 1 mg/kg), -58% in series [2] (IP 2 mg/kg) and -64% in series [2] (IP 4 mg/kg). Further, the “sedative action (in words)” value in series [2] (i.p., chlorpromazine at 2 mg/kg and above) was “very sedative at 2 mg/kg and above”. In addition, the “amount of TNF in the brain (rats, intracerebroventricular LPS)” value with TNF [3] (brain) is on record as “the amount in the brain, as is observed in rats treated with chlorpromazine”. In addition, in the series with TNF [3] (8 mg/kg), the “amount of TNF in the serum (rats, intracerebroventricular LPS)” value is given as “reduces the amount of TNF in the serum, as does chlorpromazine”. The inhibition in vivo at 4 mg/kg in the series with TNF [4] (setting [5]) was 100%. Further, the “Reduction in hypercorticosteronemia compared with control” value (“Reduction in hypercorticosteronemia” for short) with corticosteronemia (4 mg/kg i.p.) is on record as roughly 86%; in the series on corticosteronemia (4 mg/kg i.p., listed as Chloropromazine), 85.7%. In addition, in the series on corticosteronemia (4 mg/kg i.p.), the “Hypercorticosteronemia after admin. IL-1” value is listed as 63 ng/ml serum. For the same molecule, the “passage through the blood/brain barrier” value with corticosteronemia (demonstrated by determination of corticosteronemia after IL-1) is “crosses the blood/brain barrier”. Besides, the inhibition at 1000 µM on Procine pancreatic PLA2 is 76%. For the same molecule, the results for the “% survival 72 h after i.p. administration” value in the series on LPS shock (1 mg/kg) and with LPS shock (4 mg/kg) were 36% and 77%, respectively.
For `C[N+](C)(C)CCCN1c2ccccc2Sc2ccc(Cl)cc21.[Br-]` [Example 1, N-[3-(2-chlorophenothiazin-10-yl)propyl]trimethylammonium bromide], the hypotension entry in series [1] is recorded as “No hypotension is observed”. The “Number of movements (as a % compared with a control group)” value in series [2] (IP 5 mg/kg) is listed as -20%. Further, in series [2] (IP 10 mg/kg), the “Number of movements (as a % compared with a control group)” value is -9%. Besides, the “amount of TNF in the serum (rats, intracerebroventricular LPS)” value with TNF [3] is given as “reduces the amount of TNF in the serum”. Besides, the inhibition in vivo at 50 mg/kg with TNF [4] stood at 68%. Moreover, the inhibition in vivo at 5 mg/kg in the series on TNF [4] (setting [5]) came out at 75%. Besides, in the series with corticosteronemia (5 mg/kg i.p.), the “Reduction in hypercorticosteronemia” value is on record as 11.8% and the “Hypercorticosteronemia after admin. IL-1” value was 389 ng/ml serum. Also, the inhibition at 1000 µM at Procine pancreatic PLA2 (setting [6]) amounted to 72%. For the same molecule, the “% survival 72 h after i.p. administration” value in the series with LPS shock (5 mg/kg) is reported as 80%.
On to `C[N+](C)(C)CCCN1c2ccccc2[S+]([O-])c2ccc(Cl)cc21.[Br-]` (stereo not drawn) [Example 2, N-[3-(2-chloro-5-oxo-phenothiazin-10-yl)propyl]trimethylammonium bromide], for which the hypotension entry in series [1] is recorded as “No hypotension is observed”. Besides, the inhibition in vivo at 50 mg/kg with TNF [4] stood at 60%. Besides, the inhibition in vivo at 5 mg/kg in the series on TNF [4] (setting [5]) was 50%. Besides, in the series with corticosteronemia (5 mg/kg i.p.), the “Reduction in hypercorticosteronemia” value is recorded as 5.4% and the “Hypercorticosteronemia after admin. IL-1” value worked out at 417 ng/ml serum.
Take `C[N+](C)(C)CCCN1c2ccccc2S(=O)(=O)c2ccc(Cl)cc21` [Example 3, N-[3-(2-chloro-5-dioxo-phenothiazin-10-yl)propyl]trimethylammonium bromide]: in the series on TNF [4] (setting [5]), the inhibition in vivo at 5 mg/kg was determined as 69%.
Regarding `CC(C)[N+](C)(C)CCCN1c2ccccc2Sc2ccc(Cl)cc21` [Example 6, N-[3-(2-chlorophenothiazin-10-yl)propyl] dimethylisopropylammonium bromide], the inhibition in vivo at 50 mg/kg with TNF [4] is 38%.
Consider `CCCC[N+](C)(C)CCCN1c2ccccc2Sc2ccc(Cl)cc21.[Br-]` [Example 7, N-[3-(2-chlorophenothiazin-10-yl)propyl] butyldimethylammonium bromide], for which the hypotension result in series [1] is reported as “No hypotension is observed”. For the same molecule, the results for the “Number of movements (as a % compared with a control group)” value in series [2] (IP 5 mg/kg), in series [2] (IP 10 mg/kg) and in series [2] (IP 2,5 mg/kg) were -43%, -63% and -27%, respectively. For the same molecule, the inhibition in vivo at 50 mg/kg with TNF [4] is 72%. Further, the inhibition in vivo at 5 mg/kg in the series on TNF [4] (setting [5]) was determined as 95%. In addition, the “Reduction in hypercorticosteronemia” value in the series on corticosteronemia (5 mg/kg i.p.) was 11.8%. For the same molecule, the “Hypercorticosteronemia after admin. IL-1” value with corticosteronemia (5 mg/kg i.p.) stood at 389 ng/ml serum. Also, the inhibition at 1000 µM at Procine pancreatic PLA2 (setting [6]) stood at 97%. The “% survival 72 h after i.p. administration” value in the series with LPS shock (5 mg/kg) was 40%.
Take `CCCC[N+](C)(C)CCCN1c2ccccc2[S+]([O-])c2ccc(Cl)cc21.[Br-]` (stereo not drawn) [Example 8, N-[3-(2-chloro-5-oxo-phenothiazin-10-yl)propyl] butyldimethylammonium bromide]: the hypotension result in series [1] is given as “No hypotension is observed”. Besides, in the series on TNF [4], the inhibition in vivo at 50 mg/kg stood at 73%. Moreover, in the series on TNF [4] (setting [5]), the inhibition in vivo at 5 mg/kg came to 71%. Besides, in the series with corticosteronemia (5 mg/kg i.p.), the “Reduction in hypercorticosteronemia” value was determined as 19.3% and the “Hypercorticosteronemia after admin. IL-1” value was 356 ng/ml serum.
As for `CCCC[N+](C)(C)CCCN1c2ccccc2S(=O)(=O)c2ccc(Cl)cc21` [Example 9, N-[3-(2-chloro-5-dioxo-phenothiazin-10-yl)propyl] butyldimethylammonium bromide], the inhibition in vivo at 5 mg/kg with TNF [4] (setting [5]) was 75%.
`C[N+](C)(CCCN1c2ccccc2Sc2ccc(Cl)cc21)Cc1ccccc1.[Br-]` [Example 10, N-[3-(2-chlorophenothiazin-10-yl)propyl] benzyldimethylammonium bromide]: the inhibition in vivo at 5 mg/kg with TNF [4] (setting [5]) was found to be 27%. Further, in the series on corticosteronemia (5 mg/kg i.p.), the “Reduction in hypercorticosteronemia” value was found to be 0.2% and the “Hypercorticosteronemia after admin. IL-1” value is listed as 440 ng/ml serum. Besides, on Procine pancreatic PLA2 (setting [6]), the inhibition at 1000 µM was 98%. Besides, the “% survival 72 h after i.p. administration” value with LPS shock (5 mg/kg) is 60%.
Regarding `O=C(O)CCCN1c2ccccc2Sc2ccc(Cl)cc21` [Example 15, 4-(2-chlorophenothiazin-10-yl)butanoic acid], the inhibition in vivo at 50 mg/kg in the series with TNF [4] was 55%.
Same read-out and setting: for `CC(C)=CCC/C(C)=C/CN1c2ccccc2Sc2ccc(Cl)cc21` [Example 26, 2-chloro-10-[(2E)-1-(3,7-dimethylocta-2,6-dienyl)]phenothiazine] the value was 55%; for `CC(C)(C)C1CCC2(CC1)CCN(CCCN1c3ccccc3Sc3ccc(Cl)cc31)C2` (stereo not drawn) [Example 27, 2-[3-(2-chlorophenothiazin-10-yl)propyl]-8-tert-butyl-2-azoniaspiro[4.5]decane chloride], 26%.
Turning to `CCN(CC)CCCC(C)Nc1c2ccc(Cl)cc2nc2ccc(OC)cc12` (stereo not drawn) [Mepacrine, reference compound], the inhibition at 1000 µM on Procine pancreatic PLA2 turned out to be 67%.
